Laboratory results taken from BindingDB's records for doi:10.7270/Q2M61NDW (n/a, 1996).

These compounds were tested against T1, Papain (Carica papaya, UniProt P00784) (assay: Pseudo-first order rate constant for inhibition of thiol-dependent papain enzyme).
T1 sequence (P00784 whole entry): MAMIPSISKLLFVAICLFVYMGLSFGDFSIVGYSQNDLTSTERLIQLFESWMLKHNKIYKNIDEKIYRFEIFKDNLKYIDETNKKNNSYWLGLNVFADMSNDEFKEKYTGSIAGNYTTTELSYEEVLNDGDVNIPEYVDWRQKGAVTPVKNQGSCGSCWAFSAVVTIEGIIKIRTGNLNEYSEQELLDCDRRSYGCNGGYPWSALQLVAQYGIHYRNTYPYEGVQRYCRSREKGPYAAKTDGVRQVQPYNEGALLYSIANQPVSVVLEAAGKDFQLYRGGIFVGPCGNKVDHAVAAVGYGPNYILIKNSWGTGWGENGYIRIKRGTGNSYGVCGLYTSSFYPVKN

SMILES	koff [s⁻¹]
CN(N=O)c1cccc(O)c1	0.0006
CN(N=O)c1ccc(Cl)cc1	0.000283
CN(N=O)c1ccccc1O	0.000183
CN(N=O)c1ccccc1	0.00095
CN(N=O)c1ccccc1[N+](=O)[O-]	0.000433
